# From patent US20240115654A1, “INTRAVENOUS ADMINISTRATION OF ENGINEERED ANTIMICROBIAL AMPHIPHILIC PEPTIDES” (priority 2021, published 2024)
# Read-outs that look alike come from different tables or passages of the source. Peptide text beside a SMILES is read from it.
# Experiments:
# S. aureus = experiment: Periprosthetic joint infection model, implant biofilm CFU; type: in vivo; conditions: mouse, intraperitoneal; SEQ ID NO:1 0.1-10 mg/kg; compared to untreated control mice, FIG. 16
# Method: Periprosthetic joint infection was modeled in a mouse by placing an intra-articular K-wire through the medullary canal of the proximal femur followed by intra-articular inoculation with S. aureus. Animals were treated systemically with an intraperitoneal delivery of cefazolin, rifampin, or the exemplary peptide of SEQ ID NO: 1. Intraperitoneal delivery was chosen due to technical difficulties associated with intravenous delivery. Implant sonication and proximal femur homogenate were used to quantify viable bacteria.
# [1] = system: P. aeruginosa strains (PAO1 and 2 clinical isolates); experiment: Determination of bacterial resistance, passage at 0.5×MIC with daily MIC; type: cell-based, Pseudomonas aeruginosa; conditions: three P. aeruginosa strains, exposure at 0.5×MIC, FIG. 20
# Text: Each antibiotic was compared for their propensity to select for bacterial resistance phenotypes in vitro.
# [2] = system: Staphylococcus aureus ATCC 43300 (MRSA); type: cell-based; conditions: ATCC 43300
# Method: (§1) Each peptide was formulated in PBS buffer prior to testing. Peptides of SEQ ID NO:5 and SEQ ID NO:8 were brought up in 100% DMSO with 0.002% polysorbate-80 at 1.28 mg/mL (40× the highest final test concentration of 32 mcg/mL). Final test concentration of DMSO was 2.5% in the assay at the first dilution for those two compounds.
# (§2) Mueller Hinton II broth (MHB II; BD; Lot Nos. 6258541 and 7143896) was used for MIC testing of aerobic organisms. 0.002% polysorbate 80 (P80) was added to the test medium.
# (§3) MIC values were determined using a broth microdilution procedure described by CLSI (1, 3). Automated liquid handlers (Multidrop 384, Labsystems, Helsinki, Finland; Biomek 2000 and Biomek FX, Beckman Coulter, Fullerton CA) were used to conduct serial dilutions and liquid transfers.
# (§4) To prepare the drug mother plates, which would provide the serial peptide dilutions for the replicate daughter plates, the wells of columns 2-12 of standard 96-well microdilution plates (Costar 3795) were filled with 150 μl of the designated diluent for each row of peptide. The test articles and comparator compounds (300 μl at 40× the highest concentration to be tested) were dispensed into the appropriate wells in column 1. The Biomek 2000 was then used to make 2-fold serial dilutions in the mother plates from column 1 through column 11. The wells of Column 12 contained no drug and served as the organism growth control wells for the assay.
# (§5) The daughter plates were loaded with 185 μL per well of MHB II using the Multidrop 384. The daughter plates were completed on the Biomek FX instrument which transferred 5 uL of peptide solution from each well of a mother plate to the corresponding well of each daughter plate in a single step. A standardized inoculum of each test organism was prepared per CLSI methods. The inoculum for each organism was dispensed into sterile reservoirs divided by length (Beckman Coulter), and the Biomek 2000 was used to inoculate the plates. Daughter plates were placed on the Biomek 2000 work surface in reverse orientation so that inoculation took place from low to high drug concentration. The plates were then inoculated with 10 μL of the inoculum resulting in a final cell density of approximately 5×10^5 CFU/mL, per well.
# (§6) Plates were stacked 3-4 high, covered with a lid on the top plate, placed in plastic bags, and incubated at 35° C. for 16 to 20 hrs. Following incubation, the microplates were removed from the incubator and viewed from the bottom using a plate viewer. […] The MIC was read and recorded as the lowest concentration of peptide that inhibited visible growth of the organism.
# [3] = system: Pseudomonas aeruginosa ATCC 27853 (non-MDR; QC); type: cell-based; conditions: ATCC 27853
# Method: as §1, §2, §3, §4, §5, §6
# [4] = system: Enterococcus faecalis ATCC 29212 (VSE; QC); type: cell-based; conditions: ATCC 29212
# Method: as §1, §2, §3, §4, §5, §6
# [5] = system: Enterococcus faecium ATCC 51559 (VRE); type: cell-based; conditions: ATCC 51559
# Method: as §1, §2, §3, §4, §5, §6
# [6] = system: Staphylococcus aureus ATCC 29213 (MSSA; QC); type: cell-based; conditions: ATCC 29213
# Method: as §1, §2, §3, §4, §5, §6
# [7] = system: Escherichia coli ATCC BAA-2471 (NDM-1); type: cell-based; conditions: ATCC BAA-2471
# Method: as §1, §2, §3, §4, §5, §6
# [8] = system: Streptococcus pneumoniae ATCC 49619 (QC); type: cell-based; conditions: ATCC 49619
# Method: as §1, §2, §3, §4, §5, §6
# [9] = system: Escherichia coli ATCC 25922 (QC); type: cell-based; conditions: ATCC 25922
# Method: as §1, §2, §3, §4, §5, §6
# [10] = system: Acinetobacter baumannii ATCC 19606 (non-MDR); type: cell-based; conditions: ATCC 19606
# Method: as §1, §2, §3, §4, §5, §6
# [11] = system: Pseudomonas aeruginosa ATCC BAA-2109 (MDR); type: cell-based; conditions: ATCC BAA-2109
# Method: as §1, §2, §3, §4, §5, §6
# [12] = system: Acinetobacter baumannii ATCC BAA-1797 (MDR); type: cell-based; conditions: ATCC BAA-1797
# Method: as §1, §2, §3, §4, §5, §6
# [13] = system: Enterococcus faecalis ATCC 700802 (V583 VRE); type: cell-based; conditions: ATCC 700802
# Method: as §1, §2, §3, §4, §5, §6
# [14] = system: Staphylococcus aureus NRS382 (USA100; HA-MRSA); type: cell-based; conditions: USA100
# Method: as §1, §2, §3, §4, §5, §6
# [15] = system: Streptococcus pyogenes ATCC 49399; type: cell-based; conditions: ATCC 49399
# Method: as §1, §2, §3, §4, §5, §6
# [16] = system: Escherichia coli ATCC 35218 (ESBL); type: cell-based; conditions: ATCC 35218
# Method: as §1, §2, §3, §4, §5, §6
# [17] = system: Klebsiella pneumoniae ATCC BAA-1705 (KPC); type: cell-based; conditions: ATCC BAA-1705
# Method: as §1, §2, §3, §4, §5, §6
# [18] = system: Staphylococcus aureus ATCC 29213 (MSSA; QC); conditions: S. aureus ATCC 29213; established CLSI QC range; cited from earlier work
# [19] = system: Enterobacter spp. isolates (Enterobacter aerogenes and E. cloacae, n = 102); experiment: organism not typed
# Method: (§7) Comparator antibiotics were supplied by Micromyx, and stock solutions were prepared on the first day of testing using solvents recommended by CLSI (1). Stock solutions of all compounds were made at 40× the final testing concentration and stored at −80° C. prior to testing. Information regarding compound source, catalog and lot number, testing concentrations and drug diluent for the comparators and test agent are detailed below in Table 3.
# (§8) The test organisms evaluated in this study consisted of clinical isolates from the Micromyx Repository and reference isolates from the American Type Culture Collection (ATCC; Manassas, VA). The clinical isolates were obtained from USA hospitals. Upon initial receipt at Micromyx, the organisms were sub-cultured onto an appropriate agar medium. Following incubation, colonies were harvested from these plates and cell suspensions prepared and frozen at −80° C. with a cryoprotectant. Prior to testing, the isolates were streaked from frozen vials onto Trypticase Soy Agar with 5% sheep blood (Becton Dickenson [BD]; Sparks, MD; Lot Nos. 7173618, 7166759, 7208688, 72144895, 7228505 and Remel Lenexa, KS Lot No. 212574). Plates were incubated at 35° C. overnight.
# (§9) Mueller Hinton II broth (MHB II; BD; Lot Nos. 6258541 and 7143896) was used for MIC testing of aerobic organisms.
# as §3
# as §4, with “drug” for “peptide”, “drug.” for “peptide.”
# as §5, with “μL” for “uL”, “drug” for “peptide”, “methods (1).” for “methods.”, “concentration.” for “concentration. The plates were then inoculated with 10 μL of the inoculum resulting in a final cell density of approximately 5×10^5 CFU/mL, per well.”
# as §6, with “drug” for “peptide”
# (§10) Clinical breakpoints to determine percent resistance within a given organism group were obtained from CLSI (3), with the exception of colistin for K. pneumoniae, Enterobacter spp., and E. coli, which are only available from EUCAST.
# [20] = system: Acinetobacter spp. isolates (n = 104); conditions: Acinetobacter spp. (n = 104); CLSI breakpoints
# Method: as §7, §8, §9, §3
# as §4, with “drug” for “peptide”, “drug.” for “peptide.”
# as §5, with “μL” for “uL”, “drug” for “peptide”, “methods (1).” for “methods.”, “concentration.” for “concentration. The plates were then inoculated with 10 μL of the inoculum resulting in a final cell density of approximately 5×10^5 CFU/mL, per well.”
# as §6, with “drug” for “peptide”
# as §10
# [21] = system: Escherichia coli isolates (n = 101); conditions: Escherichia coli (n = 101); CLSI breakpoints, colistin EUCAST
# Method: as §7, §8, §9, §3
# as §4, with “drug” for “peptide”, “drug.” for “peptide.”
# as §5, with “μL” for “uL”, “drug” for “peptide”, “methods (1).” for “methods.”, “concentration.” for “concentration. The plates were then inoculated with 10 μL of the inoculum resulting in a final cell density of approximately 5×10^5 CFU/mL, per well.”
# as §6, with “drug” for “peptide”
# as §10
# [22] = system: Pseudomonas aeruginosa isolates (n = 109); conditions: Pseudomonas aeruginosa (n = 109), CLSI breakpoints
# Method: as §7, §8, §9, §3
# as §4, with “drug” for “peptide”, “drug.” for “peptide.”
# as §5, with “μL” for “uL”, “drug” for “peptide”, “methods (1).” for “methods.”, “concentration.” for “concentration. The plates were then inoculated with 10 μL of the inoculum resulting in a final cell density of approximately 5×10^5 CFU/mL, per well.”
# as §6, with “drug” for “peptide”
# as §10
# [23] = system: Klebsiella pneumoniae isolates (n = 101); conditions: Klebsiella pneumoniae (n = 101); CLSI breakpoints, colistin EUCAST
# Method: as §7, §8, §9, §3
# as §4, with “drug” for “peptide”, “drug.” for “peptide.”
# as §5, with “μL” for “uL”, “drug” for “peptide”, “methods (1).” for “methods.”, “concentration.” for “concentration. The plates were then inoculated with 10 μL of the inoculum resulting in a final cell density of approximately 5×10^5 CFU/mL, per well.”
# as §6, with “drug” for “peptide”
# as §10
# [24] = system: Enterococcus faecalis ATCC 29212 (VSE; QC); conditions: E. faecalis ATCC 29212; established CLSI QC range; cited from earlier work
# [25] = system: Streptococcus pneumoniae ATCC 49619 (QC); conditions: S. pneumoniae ATCC 49619; established CLSI QC range; cited from earlier work
# [26] = system: Pseudomonas aeruginosa ATCC 27853 (non-MDR; QC); conditions: P. aeruginosa ATCC 27853; established CLSI QC range; cited from earlier work
# [27] = system: Escherichia coli ATCC 25922 (QC); conditions: E. coli ATCC 25922; established CLSI QC range; cited from earlier work
compound,measurement,setting,value
CO[C@H]1/C=C/O[C@@]2(C)Oc3c(C)c(O)c4c(O)c(c(/C=N/N5CCN(C)CC5)c(O)c4c3C2=O)NC(=O)/C(C)=C\C=C\[C@H](C)[C@H](O)[C@@H](C)[C@@H](O)[C@@H](C)[C@H](OC(C)=O)[C@@H]1C [Rifampin],reduction of implant biofilm CFU burden (sonicate culture),S. aureus,comparable reduction in biofilms sonicate as compared to SEQ ID NO:1
same,time to development of resistance (fold MIC >10),[1],≤ 3 days
CC(C)[C@H](N)C(=O)N[C@H](C(=O)N[C@@H](CCCNC(=N)N)C(=O)N[C@H](C(=O)N[C@H](C(=O)N[C@@H](CCCNC(=N)N)C(=O)N[C@@H](CCCNC(=N)N)C(=O)N[C@H](C(=O)N[C@H](C(=O)N[C@@H](CCCNC(=N)N)C(=O)N[C@H](C(=O)N[C@H](C(=O)N[C@@H](CCCNC(=N)N)C(=O)N[C@@H](CCCNC(=N)N)C(=O)O)C(C)C)C(C)C)C(C)C)C(C)C)C(C)C)C(C)C)C(C)C [SEQ ID NO: 7] (H-VVRVVRRVVRVVRR-OH; N-terminus and C-terminus assumed),MIC,[2],>32 µg/mL
same,MIC,[3],>32 µg/mL
same,MIC,[4],>32 µg/mL
same,MIC,[5],16 µg/mL
same,MIC,[6],>32 µg/mL
same,MIC,[7],16 µg/mL
same,MIC,[8],>32 µg/mL
same,MIC,[9],>32 µg/mL
same,MIC,[10],>32 µg/mL
same,MIC,[11],>32 µg/mL
same,MIC,[12],>32 µg/mL
same,MIC,[13],>32 µg/mL
same,MIC,[14],>32 µg/mL
same,MIC,[15],16 µg/mL
same,MIC,[16],32 µg/mL
same,MIC,[17],>32 µg/mL
C[C@@H](O)[C@H]1C(=O)N2C(C(=O)O)=C(S[C@@H]3CN[C@H](C(=O)N(C)C)C3)[C@H](C)[C@H]12 [Meropenem],MIC QC range (in parentheses under the MIC),[18],(0.03-0.12) μg/mL
same,MIC50,[19],0.03 µg/mL
same,MIC90,[19],0.12 µg/mL
same,% R (percent of isolates resistant),"[19]; Enterobacter spp. (n = 102), CLSI breakpoints, colistin EUCAST",3.9%
same,MIC,[19]; read-out: Mode (MIC),0.03 µg/mL
same,% R (percent of isolates resistant),[20],65.4%
same,% R (percent of isolates resistant),[21],1%
same,% R (percent of isolates resistant),[22],20.2%
same,% R (percent of isolates resistant),[22]; listed as meropenem,20%
same,% R (percent of isolates resistant),[23],50.5%
same,MIC QC range (in parentheses under the MIC),[24],(2-8) μg/mL
same,MIC QC range (in parentheses under the MIC),[25],(0.03-0.25) μg/mL
same,MIC QC range (in parentheses under the MIC),[26],(0.12-1) μg/mL
same,MIC QC range (in parentheses under the MIC),[27],(0.008-0.06) μg/mL
